Here are results for six compounds from PubChem BioAssay (NCI).

Each structure is given as a SMILES string.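 Results reflect a 48-hour exposure of cells in 96-well plates to compound at five concentrations. TGI is the concentration that stops growth completely.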 Bounds are passed on as bounds.

Assay in all cases: DTP human tumour cell line panel, 48 h
In assay [1] the test system is NCI-H522 lung.
The test system of assay [2] is OVCAR-8 ovarian.
Assay [3] relates to SK-MEL-5 melanoma.
The subject of assay [4] is SK-OV-3 ovarian.
The subject of assay [5] is MCF7 breast.
For assay [6], the system named is T-47D breast.
Assay [7] deals with EKVX NSCLC.
The test system of assay [8] is U251 CNS.
Assay [9] deals with SW-620 colon.
Assay [10] deals with SK-MEL-28 melanoma.
Assay [11] deals with SNB-19 CNS.
Assay [12] has as its system MDA-N.
Assay [13] deals with SF-539 CNS.
The subject of assay [14] is KM12 colon.
Assay [15] relates to HT29 colon.
Assay [16] relates to HCC-2998 colon.
The test system of assay [17] is MDA-MB-231 breast.
Assay [18] has as its system UACC-257 melanoma.
The subject of assay [19] is CCRF-CEM leukemia.
For assay [20], the system named is UACC-62 melanoma.

As usually defined, the TGI is the concentration at which net growth stops. A low value points to more potent growth arrest. Take `CC(=O)CCCCC(=O)Nc1ccc(CC(NC(=O)OC(C)(C)C)C(=O)NCC(=O)OCc2ccccc2)cc1` (stereo unspecified): the TGI in assay [1] turned out to be 57.9 µM; in assay [2], 39.7 µM; in assay [3] it was 27.8 µM; in [4], 52.7 µM; in [5], 49.5 µM; in assay [6] it was 42.6 µM. The TGI was > 100 µM in assay [7]; 32.7 µM in assay [8]; 33 µM in assay [9]; 35.4 µM in [10]; 55 µM in assay [11]; 38.6 µM in assay [12]. Also, the TGI in [13] stood at 34.1 µM; in assay [14], 52.1 µM; in [15], 36.7 µM; in assay [16], 38 µM; in [17], 48.3 µM.
Take `N=c1oc2cc(O)ccc2cc1C(=O)NCc1ccccc1`: the TGI was 39.1 µM in assay [1]; 68.1 µM in assay [2]; 29.5 µM in assay [3]; 70 µM in assay [4]; > 100 µM in assay [5]; > 100 µM in [18]. The TGI in assay [6] is 33.7 µM; in [7] it was > 100 µM; in [8], > 100 µM; in [9], 81.6 µM; in assay [10], > 100 µM; in assay [11] it was 96.9 µM. The TGI in assay [19] was 45 µM; in [12], 49.7 µM; in assay [13], 63.3 µM; in [14], > 100 µM; in assay [15], > 100 µM; in assay [17], 65.5 µM.
In the case of `COc1ccc2oc(=N)c(C(=O)NCc3ccccc3)cc2c1`, the TGI in [1] was 43.5 µM; in assay [2], 40.4 µM; in assay [3], > 100 µM; in assay [4], 56.7 µM; in assay [5] it was 69.1 µM; in assay [18] it was > 100 µM. Besides, the TGI in [6] is 44.6 µM; in [7], > 100 µM; in assay [8], 37.2 µM; in assay [9], 55.6 µM; in assay [10] it was > 100 µM; in assay [11], > 100 µM. For the same compound, the TGI in [19] was > 100 µM; in assay [12] it was 59.9 µM; in assay [13], 56.6 µM; in [14] it was 29.6 µM; in assay [15], > 100 µM; in [17] it was 58.1 µM.
For `C=CCOc1ccc(/C(N=Nc2ccc([N+](=O)[O-])cc2)=N/NC(=O)c2ccccc2)cc1OC`, the TGI in assay [1], in [2], in [20], in assay [3], in assay [5] and in assay [18] was > 100 µM throughout. In addition, the TGI in assay [6], in [7], in assay [8], in assay [9], in assay [10] and in assay [11] was > 100 µM each time. For the same compound, the TGI in [19], in [12], in [13], in assay [14], in [15] and in assay [16] was > 100 µM throughout. Also, the TGI in [17] is > 100 µM.
In the case of `CC(=O)OCOC(=O)CN(CC(=O)OCOC(C)=O)Cc1cc2c(cc1OC(C)=O)Oc1cc(OC(C)=O)c(CN(CC(=O)OCOC(C)=O)CC(=O)OCOC(C)=O)cc1C21OC(=O)c2ccccc21`, the TGI in assay [1] came out at 1.17 µM; in assay [2], 3.23 µM; in assay [20], 1.19 µM; in [3], 2.12 µM; in assay [4], 9.4 µM; in assay [5], 7.73 µM. Besides, the TGI in assay [18] worked out at 1.27 µM; in assay [6] it was 4.21 µM; in [7], 10.6 µM; in assay [8] it was 8.5 µM; in assay [9], 3.64 µM; in assay [10], 1.76 µM. For the same compound, the TGI turned out to be 6.16 µM in [11]; 0.374 µM in assay [19]; 1.32 µM in [12]; 1.05 µM in [13]; 1.88 µM in assay [15]; 3.64 µM in assay [17].
Turning to `CCOC(=O)C(=[N+]=[N-])C(=O)C1(C(=O)OCC)CCN(C(=O)c2ccccc2)C1=O` (stereo unspecified), the TGI in [1], in assay [2], in assay [20], in assay [3], in [4] and in assay [5] was > 100 µM in each case. The TGI in assay [18], in assay [6], in assay [7], in [11], in assay [19] and in [12] was > 100 µM in each case. Moreover, the TGI in [13], in assay [14], in assay [15] and in [17] was > 100 µM in each case.
